Assay results published in patent US20240423207A1, “PICOLINAMIDE COMPOUNDS WITH FUNGICIDAL ACTIVITY” (CORTEVA AGRISCIENCE LLC, priority 2014, published 2024).
Like-named read-outs stand apart in the source and are kept apart here.

How the values were obtained:
[1] = test system: Mycosphaerella graminicola; Anamorph: Septoria tritici; assay: Leaf Blotch of Wheat (SEPTTR) fungicidal activity on wheat seedlings; assay type: in vivo; conditions: Zymoseptoria tritici; for pest or weed control at 100 ppm: High Volume; for pest or weed control at 121.5 g/ha: Low Volume, 121.5 g/H
Method: Example A: Evaluation of Fungicidal Activity: Leaf Blotch of Wheat (Mycosphaerella graminicola; Anamorph: Septoria tritici; Bayer code […]): Technical grades of materials were dissolved in acetone, which were then mixed with nine volumes of water (H2O) containing 110 ppm Triton X-100. The fungicide solutions were applied onto wheat seedlings using an automated booth sprayer to run-off. All sprayed plants were allowed to air dry prior to further handling. All fungicides were evaluated using the aforementioned method for their activity vs. all target diseases, unless stated otherwise. Wheat leaf blotch and brown rust activity were also evaluated using track spray applications, in which case the fungicides were formulated as EC formulations, containing 0.1% Trycol 5941 in the spray solutions. Wheat plants (variety Yuma) were grown from seed in a greenhouse in 50% mineral soil/50% soil-less Metro mix until the first leaf was fully emerged, with 7-10 seedlings per pot. These plants were inoculated with an aqueous spore suspension of Septoria tritici either prior to or after fungicide treatments. After inoculation the plants were kept in 100% relative humidity (one day in a dark dew chamber followed by two to three days in a lighted dew chamber at 20° C.) to permit spores to germinate and infect the leaf. The plants were then transferred to a greenhouse set at 20° C. for disease to develop. When disease symptoms were fully expressed on the 1st leaves of untreated plants, infection levels were assessed on a scale of 0 to 100 percent disease severity. Percent disease control was calculated using the ratio of disease severity on treated plants relative to untreated plants.

[2] = test system: Puccinia triticina; Synonym: Puccinia recondita f sp. tritici; assay: Wheat Brown Rust (PUCCRT) fungicidal activity on wheat seedlings; assay type: in vivo; conditions: for pest or weed control at 100 ppm: High Volume; for pest or weed control at 121.5 g/ha: Low Volume, 121.5 g/H
Method: Technical grades of materials were dissolved in acetone, which were then mixed with nine volumes of water (H2O) containing 110 ppm Triton X-100. The fungicide solutions were applied onto wheat seedlings using an automated booth sprayer to run-off. All sprayed plants were allowed to air dry prior to further handling. All fungicides were evaluated using the aforementioned method for their activity vs. all target diseases, unless stated otherwise. Wheat leaf blotch and brown rust activity were also evaluated using track spray applications, in which case the fungicides were formulated as EC formulations, containing 0.1% Trycol 5941 in the spray solutions. Wheat plants (variety Yuma) were grown from seed in a greenhouse in 50% mineral soil/50% soil-less Metro mix until the first leaf was fully emerged, with 7-10 seedlings per pot. These plants were inoculated with an aqueous spore suspension of Septoria tritici either prior to or after fungicide treatments. After inoculation the plants were kept in 100% relative humidity (one day in a dark dew chamber followed by two to three days in a lighted dew chamber at 20° C.) to permit spores to germinate and infect the leaf. The plants were then transferred to a greenhouse set at 20° C. for disease to develop. When disease symptoms were fully expressed on the 1st leaves of untreated plants, infection levels were assessed on a scale of 0 to 100 percent disease severity. Percent disease control was calculated using the ratio of disease severity on treated plants relative to untreated plants. Example B: Evaluation of Fungicidal Activity: Wheat Brown Rust (Puccinia triticina; Synonym: Puccinia recondita f sp. tritici; Bayer code PUCCRT): Wheat plants (variety Yuma) were grown from seed in a greenhouse in 50% mineral soil/50% soil-less Metro mix until the first leaf was fully emerged, with 7-10 seedlings per pot. These plants were inoculated with an aqueous spore suspension of Puccinia triticina either prior to or after fungicide treatments. After inoculation the plants were kept in a dark dew room at 22° C. with 100% relative humidity overnight to permit spores to germinate and infect the leaf. The plants were then transferred to a greenhouse set at 24° C. for disease to develop. Fungicide formulation, application and disease assessment followed the procedures as described in the Example A.

[3] = 24 h, 1 Day Protectant, read-out: SEPTTR 1DP disease control
[4] = 72 h, 3 Day Curative, read-out: SEPTTR 3DC disease control
[5] = 24 h, 1 Day Protectant, read-out: PUCCRT 1DP disease control
[6] = 72 h, 3 Day Curative, read-out: PUCCRT 3DC disease control

Row | SMILES | pest or weed control at 100 ppm [1, 3] | pest or weed control at 100 ppm [1, 4] | pest or weed control at 100 ppm [2, 5] | pest or weed control at 100 ppm [2, 6] | pest or weed control at 121.5 g/ha [1, 3] | pest or weed control at 121.5 g/ha [1, 4] | pest or weed control at 121.5 g/ha [2, 6] | pest or weed control at 121.5 g/ha [2, 5]
1 | COc1ccnc(C(=O)N[C@@H](C)C(=O)O[C@@H](C)C(c2cccc(Cl)c2)c2cccc(Cl)c2)c1O [Cmpd 100] | > 80% | > 80% | > 80% | > 80% | – | – | – | –
2 | COc1ccnc(C(=O)N[C@@H](C)C(=O)OC(C)C2c3ccccc3Oc3ccccc32)c1O (stereo partly shown) [Cmpd 102] | < 80% | < 80% | < 80% | – | – | – | – | –
3 | COc1ccnc(C(=O)N[C@@H](C)C(=O)O[C@@H](C)C(c2ccc(Br)cc2)c2ccc(Br)cc2)c1O [Cmpd 103] | > 80% | > 80% | > 80% | < 80% | – | – | – | –
4 | COc1ccnc(C(=O)N[C@@H](C)C(=O)O[C@@H](C)C(c2ccc(C)s2)c2ccc(C)s2)c1O [Cmpd 104] | < 80% | > 80% | > 80% | – | – | – | – | –
5 | COc1ccnc(C(=O)N[C@@H](C)C(=O)O[C@@H](C)C(c2ccc(C)cc2)c2ccc(C)cc2)c1O [Cmpd 105] | > 80% | > 80% | > 80% | > 80% | – | – | – | –
6 | COc1ccnc(C(=O)N[C@@H](C)C(=O)O[C@@H](C)[C@@H](c2ccccc2)c2ccc(C(F)(F)F)cc2)c1O [Cmpd 106] | > 80% | > 80% | > 80% | – | – | – | – | –
7 | COc1ccnc(C(=O)N[C@@H](C)C(=O)O[C@@H](C)C(c2ccc(Cl)cc2)c2ccc(Cl)cc2)c1O [Cmpd 107] | > 80% | > 80% | > 80% | < 80% | – | – | – | –
8 | COc1ccnc(C(=O)N[C@@H](C)C(=O)O[C@@H](C)C(c2ccc(-c3ccccc3)cc2)c2ccc(-c3ccccc3)cc2)c1O [Cmpd 109] | – | < 80% | < 80% | – | – | – | – | –
9 | C[C@H](NC(=O)c1ncccc1O)C(=O)O[C@@H](C)C(c1ccc(F)cc1)c1ccc(F)cc1 [Cmpd 110] | > 80% | > 80% | > 80% | – | – | – | – | –
10 | CCOc1ccnc(C(=O)N[C@@H](C)C(=O)O[C@@H](C)C(c2ccc(F)cc2)c2ccc(F)cc2)c1O [Cmpd 111] | < 80% | > 80% | < 80% | – | – | – | – | –
11 | COc1ccnc(C(=O)NCC(=O)O[C@@H](C)C(c2ccc(F)cc2)c2ccc(F)cc2)c1O [Cmpd 113] | > 80% | < 80% | > 80% | < 80% | – | – | – | –
12 | CC[C@H](NC(=O)c1nccc(OC)c1O)C(=O)O[C@@H](C)C(c1ccc(F)cc1)c1ccc(F)cc1 [Cmpd 114] | > 80% | > 80% | > 80% | > 80% | – | – | – | –
13 | COc1ccnc(C(=O)N[C@H](C(=O)O[C@@H](C)C(c2ccc(F)cc2)c2ccc(F)cc2)C(C)C)c1O [Cmpd 115] | > 80% | > 80% | < 80% | – | – | – | – | –
14 | COc1ccnc(C(=O)N[C@@H](CC(C)C)C(=O)O[C@@H](C)C(c2ccc(F)cc2)c2ccc(F)cc2)c1O [Cmpd 116] | < 80% | < 80% | < 80% | – | – | – | – | –
15 | COc1ccccc1C(c1ccccc1OC)[C@H](C)OC(=O)[C@H](C)NC(=O)c1nccc(OC)c1O [Cmpd 117] | > 80% | > 80% | > 80% | < 80% | – | – | – | –
16 | COc1cccc(C(c2cccc(OC)c2)[C@H](C)OC(=O)[C@H](C)NC(=O)c2nccc(OC)c2O)c1 [Cmpd 118] | < 80% | > 80% | > 80% | > 80% | – | – | – | –
17 | COc1ccnc(C(=O)N[C@@H](C)C(=O)O[C@@H](C)C(c2ccc(C)c(F)c2)c2ccc(C)c(F)c2)c1O [Cmpd 120] | > 80% | > 80% | > 80% | < 80% | – | – | – | –
18 | COc1ccnc(C(=O)N[C@@H](C)C(=O)O[C@@H](C)C(c2ccc(C)c(Cl)c2)c2ccc(C)c(Cl)c2)c1O [Cmpd 121] | > 80% | > 80% | > 80% | < 80% | – | – | – | –
19 | C#Cc1ccc(C(c2ccc(C#C)cc2)[C@H](C)OC(=O)[C@H](C)NC(=O)c2nccc(OC)c2O)cc1 [Cmpd 123] | < 80% | > 80% | < 80% | – | – | – | – | –
20 | CCc1ccc(C(c2ccc(CC)cc2)[C@H](C)OC(=O)[C@H](C)NC(=O)c2nccc(OC)c2O)cc1 [Cmpd 124] | > 80% | > 80% | > 80% | > 80% | – | – | – | –
21 | COc1ccnc(C(=O)N[C@@H](C)C(=O)O[C@@H](C)[C@@H](c2ccccc2)c2ccc(F)cc2)c1O [Cmpd 125] | > 80% | > 80% | > 80% | > 80% | – | – | – | –
22 | COc1ccnc(C(=O)N[C@@H](C)C(=O)O[C@@H](C)C(O)(c2ccc(Cl)c(Cl)c2)c2ccc(Cl)c(Cl)c2)c1O [Cmpd 127] | < 80% | – | < 80% | – | – | – | – | –
23 | COc1ccnc(C(=O)N[C@@H](C)C(=O)O[C@@H](C)C(O)(c2ccc(Cl)c(F)c2)c2ccc(Cl)c(F)c2)c1O [Cmpd 128] | > 80% | < 80% | < 80% | – | – | – | – | –
24 | COc1ccnc(C(=O)N[C@@H](C)C(=O)O[C@@H](C)C(c2ccc(Cl)c(C)c2)c2ccc(Cl)c(C)c2)c1O [Cmpd 129] | > 80% | > 80% | > 80% | < 80% | – | – | – | –
25 | COc1ccnc(C(=O)N[C@@H](C)C(=O)O[C@@H](C)C(c2ccc(F)c(Cl)c2)c2ccc(F)c(Cl)c2)c1O [Cmpd 132] | > 80% | > 80% | > 80% | < 80% | – | – | – | –
26 | COc1ccnc(C(=O)N[C@@H](C)C(=O)O[C@@H](C)C(O)(c2ccccc2)c2ccccc2)c1OCOC(C)=O [Cmpd 138] | – | – | – | – | > 80% | < 80% | < 80% | –
27 | COc1ccnc(C(=O)N[C@@H](C)C(=O)O[C@@H](C)C(c2cccs2)c2cccs2)c1OC(C)=O [Cmpd 143] | – | – | – | – | – | < 80% | – | < 80%
28 | COc1ccnc(C(=O)N[C@@H](C)C(=O)O[C@@H](C)C(c2cccs2)c2cccs2)c1OCOC(C)=O [Cmpd 144] | – | – | – | – | < 80% | < 80% | < 80% | < 80%
29 | CCOC(c1ccccc1)(c1ccccc1)[C@H](C)OC(=O)[C@H](C)NC(=O)c1nccc(OC)c1OCOC(C)=O [Cmpd 147] | – | – | – | – | < 80% | > 80% | < 80% | < 80%
